Measurements as given in patent publication US11986790B2, “Method for preparing microcapsules” (LG Household & Health Care Ltd., priority 2018, dated 2024).
Converted amounts (≈) assume the structure as drawn.

Assay: Water solubility of acrylic monomers
Type: physicochemical
Conditions: 25 °C
Text: Specific examples of such acrylic monomers may include one or more selected from the group consisting of dipropyleneglycol diacrylate, diethyleneglycol diacrylate, and tetraethyleneglycol dimethacrylate, as shown in the following Table 1.

A solubility (Table 1, room temperature of 25° C.) of 52 to 53 mg/mL (≈ 157 to 160 mM) and a solubility (stated in the example text for the monomer used) of 52 mg/mL (≈ 157 mM) were found for `C=C(C)C(=O)OCCOCCOCCOCCOC(=O)C(=C)C` [Tetraethylene glycol Dimethacrylate] in this work.
